Measurements as given in ChEMBL document CHEMBL4673218, “Kojyl cinnamate esters are peroxisome proliferator-activated receptor α/γ dual agonists” (Bioorg Med Chem, 2018).
The source made the active and inactive calls. The rule behind the calls is not given here.

How the values were obtained:
[1] = biological target: T1, Peroxisome proliferator-activated receptor delta (Homo sapiens) (UniProt Q03181); assay: Binding affinity to human recombinant PPARdelta at 30 uM by competitive binding based TR-FRET assay
T1 sequence (whole entry): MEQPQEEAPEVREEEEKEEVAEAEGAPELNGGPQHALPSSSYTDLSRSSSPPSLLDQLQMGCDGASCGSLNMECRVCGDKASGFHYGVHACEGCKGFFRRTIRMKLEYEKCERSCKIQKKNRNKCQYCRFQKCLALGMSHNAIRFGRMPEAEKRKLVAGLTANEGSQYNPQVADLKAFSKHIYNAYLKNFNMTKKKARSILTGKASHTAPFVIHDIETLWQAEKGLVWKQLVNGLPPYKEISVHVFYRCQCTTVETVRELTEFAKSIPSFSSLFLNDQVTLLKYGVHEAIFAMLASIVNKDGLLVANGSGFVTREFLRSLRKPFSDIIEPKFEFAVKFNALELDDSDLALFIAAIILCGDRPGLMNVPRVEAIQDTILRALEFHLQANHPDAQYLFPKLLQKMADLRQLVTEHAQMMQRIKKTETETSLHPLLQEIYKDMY

[2] = biological target: T2, PPAR alpha/gamma (Homo sapiens) (UniProt P37231+Q07869); assay: Agonist activity at PPARalpha/PPARgamma in human AT-MSC cells assessed as upregulation of adiponectin mRNA at 10 uM incubated for 3 days by qRT-PCR analysis; type: cell-based; details: Adipose tissue derived mesenchymal stem cell, filed as agonist, time 3.0 day
T2 sequence (P37231 whole entry, looked up, one chain of several): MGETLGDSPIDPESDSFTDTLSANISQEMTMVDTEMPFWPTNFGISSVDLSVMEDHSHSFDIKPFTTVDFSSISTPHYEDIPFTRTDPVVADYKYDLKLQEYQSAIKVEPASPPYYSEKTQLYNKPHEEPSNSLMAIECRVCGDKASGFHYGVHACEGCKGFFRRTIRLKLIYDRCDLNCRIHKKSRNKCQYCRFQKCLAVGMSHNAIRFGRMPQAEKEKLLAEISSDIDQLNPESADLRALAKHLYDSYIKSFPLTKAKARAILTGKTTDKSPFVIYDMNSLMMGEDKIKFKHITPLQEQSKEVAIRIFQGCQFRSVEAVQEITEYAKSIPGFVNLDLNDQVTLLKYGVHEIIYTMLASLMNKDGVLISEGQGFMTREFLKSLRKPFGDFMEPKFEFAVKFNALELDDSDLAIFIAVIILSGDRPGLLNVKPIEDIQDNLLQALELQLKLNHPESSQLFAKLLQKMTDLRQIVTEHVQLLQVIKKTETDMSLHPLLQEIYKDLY

[3] = biological target: T2, PPAR alpha/gamma (Homo sapiens); assay: Agonist activity at PPARalpha/PPARgamma in human AT-MSC cells assessed as upregulation of SCD1 mRNA at 10 uM incubated for 3 days by qRT-PCR analysis; type: cell-based; details: Adipose tissue derived mesenchymal stem cell, filed as agonist, time 3.0 day
NHEK = assay: Inhibition of UVB-induced MMP1 mRNA in human NHEK cells at 10 uM incubated for 24 hrs by qRT-PCR analysis; type: functional, cell-based
[4] = biological target: T2, PPAR alpha/gamma (Homo sapiens); assay: Agonist activity at PPARalpha/PPARgamma in human NHEK cells assessed as upregulation of ACACB mRNA at 10 uM incubated for 3 days by qRT-PCR analysis; type: cell-based; details: time 3.0 day
[5] = biological target: T3, Peroxisome proliferator-activated receptor alpha (Homo sapiens) (UniProt Q07869); assay: Binding affinity to human recombinant PPARalpha at 30 uM by competitive binding based TR-FRET assay relative to control; details: filed as agonist
T3 sequence (whole entry): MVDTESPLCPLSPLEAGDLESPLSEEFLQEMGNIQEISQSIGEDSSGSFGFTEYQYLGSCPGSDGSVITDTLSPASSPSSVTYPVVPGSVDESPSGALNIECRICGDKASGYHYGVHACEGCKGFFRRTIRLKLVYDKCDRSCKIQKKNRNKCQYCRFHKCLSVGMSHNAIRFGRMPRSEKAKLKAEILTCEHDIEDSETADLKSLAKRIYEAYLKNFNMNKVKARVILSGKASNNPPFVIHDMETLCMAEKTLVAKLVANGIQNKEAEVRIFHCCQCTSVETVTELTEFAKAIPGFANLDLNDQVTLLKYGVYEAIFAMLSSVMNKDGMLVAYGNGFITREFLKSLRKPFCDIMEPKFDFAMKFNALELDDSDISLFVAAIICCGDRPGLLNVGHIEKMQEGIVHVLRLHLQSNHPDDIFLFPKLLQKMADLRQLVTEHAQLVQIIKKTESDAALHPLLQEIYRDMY

[6] = biological target: T2, PPAR alpha/gamma (Homo sapiens); assay: Agonist activity at PPARalpha/PPARgamma in human NHEK cells assessed as upregulation of FADS2 mRNA at 10 uM incubated for 3 days by qRT-PCR analysis; type: cell-based; details: filed as agonist, time 3.0 day
[7] = biological target: T4, Glucocorticoid receptor (Homo sapiens) (UniProt P04150); assay: Binding affinity to human glucocorticoid receptor at 30 uM by competitive binding based TR-FRET assay
T4 sequence (whole entry): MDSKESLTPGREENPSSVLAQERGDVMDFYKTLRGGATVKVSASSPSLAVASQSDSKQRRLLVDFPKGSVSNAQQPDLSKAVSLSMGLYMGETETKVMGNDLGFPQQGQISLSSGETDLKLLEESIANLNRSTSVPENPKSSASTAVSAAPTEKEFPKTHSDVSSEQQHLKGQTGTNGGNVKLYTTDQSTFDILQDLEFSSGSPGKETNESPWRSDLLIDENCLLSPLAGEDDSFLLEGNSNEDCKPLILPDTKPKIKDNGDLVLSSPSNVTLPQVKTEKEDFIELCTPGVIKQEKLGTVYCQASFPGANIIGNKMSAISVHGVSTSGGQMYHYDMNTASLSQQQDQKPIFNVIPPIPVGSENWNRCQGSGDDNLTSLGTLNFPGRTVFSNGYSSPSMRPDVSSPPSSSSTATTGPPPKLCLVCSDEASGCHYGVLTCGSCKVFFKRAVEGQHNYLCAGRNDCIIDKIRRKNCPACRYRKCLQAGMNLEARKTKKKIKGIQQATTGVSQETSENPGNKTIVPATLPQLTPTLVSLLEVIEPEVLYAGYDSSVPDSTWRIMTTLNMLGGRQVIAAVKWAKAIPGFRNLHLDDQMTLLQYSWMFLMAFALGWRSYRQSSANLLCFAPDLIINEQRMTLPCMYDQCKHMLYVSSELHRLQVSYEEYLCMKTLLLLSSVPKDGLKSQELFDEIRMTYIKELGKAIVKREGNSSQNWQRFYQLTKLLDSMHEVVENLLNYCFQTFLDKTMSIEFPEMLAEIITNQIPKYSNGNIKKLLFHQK

[8] = biological target: T2, PPAR alpha/gamma (Homo sapiens); assay: Agonist activity at PPARalpha/PPARgamma in human AT-MSC cells assessed as upregulation of FASN mRNA at 10 uM incubated for 3 days by qRT-PCR analysis; type: cell-based; details: Adipose tissue derived mesenchymal stem cell, filed as agonist, time 3.0 day
[9] = Induction of adipogenesis in human AT-MSC assessed as adiponectin secretion in IDX medium incubated for 5 days by ELISA; type: functional; details: adipose tissue derived mesenchymal stem cell
[10] = biological target: T2, PPAR alpha/gamma (Homo sapiens); assay: Agonist activity at PPARalpha/PPARgamma in human NHEK cells assessed as upregulation of FADS1 mRNA at 10 uM incubated for 3 days by qRT-PCR analysis; type: cell-based; details: filed as agonist, time 3.0 day
[11] = biological target: T5, Oxysterols receptor LXR-alpha (Homo sapiens) (UniProt Q13133); assay: Binding affinity to human LXRalpha at 30 uM by competitive ligand binding based TR-FRET assay
T5 sequence (whole entry): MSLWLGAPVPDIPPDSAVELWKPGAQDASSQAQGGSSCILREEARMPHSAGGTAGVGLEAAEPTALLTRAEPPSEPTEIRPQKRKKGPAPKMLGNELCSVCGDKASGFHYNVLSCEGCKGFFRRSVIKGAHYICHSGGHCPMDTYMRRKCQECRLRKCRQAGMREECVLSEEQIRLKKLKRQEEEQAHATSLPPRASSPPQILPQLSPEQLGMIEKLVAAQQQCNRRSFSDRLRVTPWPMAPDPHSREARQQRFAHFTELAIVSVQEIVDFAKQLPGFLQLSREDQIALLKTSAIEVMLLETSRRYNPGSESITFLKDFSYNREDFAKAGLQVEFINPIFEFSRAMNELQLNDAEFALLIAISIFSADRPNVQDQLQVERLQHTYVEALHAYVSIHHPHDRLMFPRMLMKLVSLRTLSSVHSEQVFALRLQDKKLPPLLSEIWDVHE

With `COc1ccc(OC)c(/C=C/C(=O)OCc2cc(=O)c(O)co2)c1` the Activity [1] was “inactive”, the Activity [2] was “Active” and the Activity [3] was “Active”. The inhibition (NHEK) was “Active”, the Activity [4] was “inactive” and the Activity [5] was 59%. The Activity [6] was “Active”, the Activity [7] was “inactive” and the Activity [8] was “Active”. For the same molecule, the EC50 [9] was 7.6 µM, the Activity [10] was “Active” and the Activity [11] was “inactive”.
